{
  "source": "patent US8247227B2",
  "about": "“Dendritic cell precursors” (The Cleveland Clinic Foundation, priority 2006, dated 2012)",
  "key": {"[1]": {"test_system": "Flt3L+IL6 conditioned BM cells", "experiment": "Immunosuppressive factors added to Step 2 culture: DC1 polarization", "assay_type": "cell-based, mouse", "conditions": "factor added in Step 2, TLR agonist-induced", "method": "FIG. 7A is a histogram showing Step 2 cultures (cells were re-plated in GMCSF and IL-4 at 0 hr, CpG+LPS added at 24 hr, FACS performed at 44 hr), except that listed immunosuppressive factors were added at 0 hr, 1 hr, 2 hr, or 4 hr of Step 2 culture, and supernatants analyzed by ELISA in triplicate for IL-12 p70 content at 44 hr of Step 2 culture. Error bars indicate s.d. This is representative of three experiments;\nWe investigated whether Flt3L+IL6 proliferative conditioning conferred uniform responsiveness to DC1 polarization stimuli even in the presence of putative immunosuppressive factors. We added IL10, TGFβ1 VEGF, or PGE2 at doses which equaled and exceeded those reported to inhibit the maturation of other DC preparations (Kao, J Y et al. J. Immunol. 170, 3806-3811 (2003); Kobie, J J et al. Cancer Res. 63, 1860-1864 (2003); Gabrilovich, D. et al. Blood 92, 4150-4166 (1998); Dikov, M M et al. J. Immunol. 174, 215-222 (2005); Shurin, M R et al. Int. J. Cancer 101, 61-68 (2002); Yang, A S et al. Cancer Res. 63, 2150-2157 (2003); Kalinski, P. et al. J. Immunol. 161, 2804-2809 (1998)).\n(§1) Step 2 was initiated (0 hr) in CM, rmGMCSF and optionally rmIL4. Step 2 cultures were performed in 24 well cluster plates, 4 million BM cells per well in 2 ml CM. DC1 polarization stimuli such as CpG (ODN 1826, 5 μM) and LPS 50 ng/ml were added between 18-24 hrs, and cells harvested at 40-44 hrs for analyses. When included, immunosuppressive agents rmIL10, rmVEGF, rhTGFβ1 or PGE2 were added between 0 and 24 hrs of Step 2 culture at doses specified in Results. Alternatively, particulate tumor cells, either viable unirradiated, viable irradiated (10,000 cGy), or killed freeze-thawed lysate (Cohen, P A et al. Cancer Res. 54, 1055-1058 (1994)), were added to Step 2 BM cells. Viable tumor cells were sometimes labelled with CFSE (Molecular Probes, Eugene, Oreg.) to allow their identification and exclusion during subsequent FACS analyses (Peng, L. et al. J. Immunol. 169, 4811-4821 (2002))."}, "L-selectin^low T cells": {"test_system": "L-selectin^low T cells", "experiment": "T cell co-cultures with variously conditioned DCs", "assay_type": "cell-based, mouse", "conditions": "DCs from other conditioning treatments", "quoted_text": "Step 2 DC cultures were performed in rGMCSF and rIL-4 with irradiated MCA-203 cells added at 24 hr and CpG+LPS added at 44 hr. Four hours later, DCs were harvested for co-culture with L-selectin^low T cells freshly harvested from MCA-203 tumor-bearing mice. T cells were co-cultured with DCs at an 8:1 ratio or were activated with immobilized anti-CD3. […] Cultures shown also received exogenous IL-2, IL-7 and IL-15.\nCultures shown also received exogenous IL2, IL7 and IL15.\nConditioned DC precursors were transferred to Step 2 culture, exposed to viable irradiated tumor, optionally further activated with CpG+LPS, then co-cultured with tolerized TDLN T cells from mice bearing the relevant tumor.\nPrior to harvest of T cells from tumor-bearing mice, DCs were prepared under various Step 1 conditions in CM; Step 2 was performed in 1% non heat-deactivated mouse serum instead of FCS (CM-MS), during which BM cultures were exposed to viable irradiated tumor cells, then CpG+LPS as denoted in Results. On the day of DC harvest, T cells were freshly harvested from the tumor-draining lymph nodes of mice bearing 12 day tumors. The L-selectin^low (tolerized pre-effector) fraction of T cells was isolated by negative selection as described previously (Peng, L. et al. J. Immunol. 165, 5738-5749 (2000); Wang, L. et al. J. Translational Med. 2, 41 (2004)), and cultured in CM-MS with immobilized anti-CD3 (Peng, L. et al. J. Immunol. 165, 5738-5749 (2000); Wang, L. et al. J. Translational Med. 2, 41 (2004)) or variously conditioned DCs. Beginning on day 2 of T cell culture, some groups also received rhIL2 (24 I.U./m1), or rhIL2, rhIL7 (50 ng/ml) and rhIL15 (5 ng/ml). T cells were harvested for assays and adoptive therapy after 12 days of culture."}, "[2]": {"test_system": "CD34^pos stem cell subpopulation", "experiment": "Step 1 proliferative culture of fresh bone marrow: numeric expansion", "assay_type": "cell-based, mouse", "conditions": "for superimposed proliferative impacts: added to Step 1 culture; for effectiveness as alternative Step 1 factor: rhIL6 100 ng/ml instead of mIL6, rSCF instead of mSCF", "method": "FIG. 6 is a chart showing numeric expansion resulting from the exposure of bone marrow (BM) suspensions to various factors. BM freshly harvested from C57BL/6 mice was cultured for 6 days in the specific factors, then harvested and counted. Each bar represents 3-11 determinations±s.d., each performed in synchronous comparison to at least five other groups. […] Synergistic expansions reflected a 35-80 fold selective outgrowth of the CD34^pos subpopulation (see FIG. 10);\nFIG. 10 is a histogram showing gross numeric expansion of fresh bone marrow (BM) reflective of selective outgrowth of the CD34^pos subpopulation. Freshly prepared mouse BM cell suspensions were stained with FITC-anti-CD34 mAb to enable isolation of CD34^pos and CD34^neg subpopulations by a FACSAria cell sorter. CD34^pos cells initially represented 10.8±7% of the total BM cells. The following groups were then cultured for 6 days in 75 cm^2 flasks, either in Flt3L+SCF+IL6 (striped bars) or in Flt3L+IL6 (solid bars): “Unfractionated BM” (12-15 million per flask); “FACS sorted CD34^neg cells” (12-15 million per flask); “FACS sorted CD34^pos cells” (2-3 million per flask); or “FACS sorted, unirradiated CD34^pos cells plus irradiated (3,000 cGy) CD34^neg cells.” Labels above bars indicate fold numeric expansion during the 6 day culture. […] (Not done=group not done);\nWe cultured fresh mouse BM in two stages, a 6-7 day proliferative phase (Step 1) and a 2-3 day post-proliferative phase (Step 2). […] FACS sorting experiments confirmed that such expansion represented a net 35-80 fold proliferation of the minor (<12%) CD34^pos stem cell subpopulation, with rapid dropout of the initially CD34^neg subpopulation (FIG. 10). Stem cell proliferation persisted well past day 7 if medium and factors were adequately replenished (not shown).\nSingle cell suspensions were prepared from the femurs and tibias of healthy mice (Kuriyama, H. et al. Dev. Biol. (Basel) 116, 169-178 (2004)). Following RBC lysis by ammonium chloride, no further processing was performed. […] BM cells were normally cultured for 6-7 days, harvested, counted, and washed twice in PBS prior to initiation of Step 2 cultures."}, "[3]": {"test_system": "CD11c^pos cells and CD34^pos cells", "experiment": "In vivo cytokine treatment for six days: spleen and BM CD11c^pos and CD34^pos cells", "parameters": "species or system BALB/c mice", "conditions": "with rhFlt3-L 10 mcg i.p. daily", "from_the_text": "FIGS. 15A-D are a series of graphs showing BALB/c mice treated for six days with either (A) nothing, (B) rhFlt3-L 10 mcg i.p. daily, (C) rhIL-6 mcg i.p. three times daily, and (D) rhFlt3-L 10 mcg i.p. daily plus rhIL-6 50 mcg i.p. three times daily. The next day mice were euthanized, spleens and BM harvested, and CD11c^pos cells (committed DC lineage) and CD34^pos cells (stem cells, potential DC precursors) quantified. Results are representative of four experiments. […] This is representative of four experiments;\nFIGS. 16A-D are a series of graphs showing BALB/c mice treated for six days with either (A) nothing, (B) rhFlt3-L 10 mcg i.p. daily, (C) rhFlt3-L 10 mcg i.p. daily plus rhIL-6 50 mcg i.p. three times daily, (D) rhFlt3-L 10 mcg i.p. daily plus rhIL-6 50 mcg i.p. once daily, (E) rhFlt3-L 10 mcg i.p. daily plus rhIL-6 10 mcg i.p. three times daily, and (F) rhFlt3-L 10 mcg i.p. daily plus rhIL-6 10 mcg i.p. once times daily. The next day mice were euthanized, spleens and BM harvested, and CD11c^pos cells (committed DC lineage) and CD34^pos cells (stem cells, potential DC precursors) quantified. Results are representative of three experiments."}, "BM cells": {"test_system": "BM cells", "experiment": "Step 2 culture: spontaneous DC maturation without exogenous maturation stimuli", "assay_type": "cell-based, mouse", "conditions": "after Flt3L or Flt3L+IL6 conditioning", "source_text": "DC differentiation typically arrests at the immature stage unless DCs are exposed to additional signals such as CD40 ligation, calcium ionophore or TLR agonists (Xu, S. et al. J. Immunol. 171, 2251-2261 (2003); Bonifaz, L. et al. J. Exp. Med. 196, 1627-1638 (2002); Napolitani, G. et al. Nat. Immunol. 6, 769-776 (2005); Czerniecki, B J et al. J. Immunol. 159, 3823-3837 (1997); Mailliard, R B et al. Cancer Res. 64, 5934-5937 (2004)). […] Instead, uniform upregulation of MHC Class II and CD11c ensued within hours of transfer from Flt3L+IL6 into GMCSF, followed by upregulation of CD40, co-stimulatory molecules and CCR7 between 48 and 72 hours of Step 2 culture.\nas §1"}, "conditioned BM cells": {"test_system": "conditioned BM cells", "experiment": "Tumor contact during Step 2 culture: DC maturation and IL12 production", "assay_type": "cell-based, mouse", "method": "Because DC ingestion of cellular material can induce tolerogenic DCs (Bonifaz, L. et al. J. Exp. Med. 196, 1627-1638 (2002)), we tested the impact of exposing DCs to large volumes of tumor at 16-24 hours of Step 2 culture in GMCSF, to determine tumor's impact on subsequent spontaneous maturation. To cluster plate wells each containing 4 million conditioned BM cells, we added either 4 million freeze-thawed (killed) tumor cells; 3 million irradiated (10,000 cGy), trypan-excluding tumor cells; or 2 million unirradiated, actively proliferating tumor cells. Given the much larger dimensions of viable tumor cells compared to the cultured BM cells, these represented voluminous tumor challenges.\nas §1"}},
  "data": [
    {"molecule": "CCCCC[C@H](O)/C=C/[C@H]1[C@H](O)CC(=O)[C@@H]1C/C=C\\CCCC(=O)O", "note": "[PGE2, prostaglandin E2, reference compound]", "values": [
      {"measurement": "impact upon DC1 polarization (phenotypic maturation, IL12)", "setting": "[1]", "result": "substantially inhibited"}
    ]},
    {"molecule": "IL15", "values": [
      {"measurement": "rescue of DC toxicity to T cells by exogenous cytokine", "setting": "L-selectin^low T cells", "result": "could not be rescued"}
    ]},
    {"molecule": "TGFI31: immunosuppressive factor, recombinant human TGFβ1", "values": [
      {"measurement": "impact upon DC1 polarization (phenotypic maturation, IL12)", "setting": "[1]", "result": "paradoxically enhanced both phenotypic maturation and IL12 secretion"}
    ]},
    {"molecule": "VEGF", "values": [
      {"measurement": "impact upon DC1 polarization (phenotypic maturation, IL12)", "setting": "[1]", "result": "negligible impacts"}
    ]},
    {"molecule": "fibronectin", "values": [
      {"measurement": "superimposed proliferative impacts", "setting": "[2]", "result": "negligible superimposed proliferative impacts"}
    ]},
    {"molecule": "rhIL6: recombinant human interleukin-6", "values": [
      {"measurement": "effectiveness as alternative Step 1 factor", "setting": "[2]", "result": "also effective"},
      {"measurement": "10 mcg versus 50 mcg dosing", "setting": "[3]", "result": "as effective as 50 mcg dosing"},
      {"measurement": "thrice daily versus once daily administration", "setting": "[3]", "result": "more effective than once daily"}
    ]},
    {"molecule": "IL7 (protein, UniProt P13232 26-177, looked up) Interleukin-7: DCDIEGKDGKQYESVLMVSIDQLLDSMKEIGSNCLNNEFNFFKRHICDANKEGMFLFRAARKLRQFLKMNSTGDFDLHLLKVSEGTTILLNCTGQVKGRKPAALGEAQPTKSLEENKSLKEQKKLNDLCFLKRLLQEIKTCWNKILMGTKEH", "values": [
      {"measurement": "rescue of DC toxicity to T cells by exogenous cytokine", "setting": "L-selectin^low T cells", "result": "could not be rescued"}
    ]},
    {"molecule": "IL10: immunosuppressive factor, recombinant mouse IL10 (protein, UniProt P18893 19-178, looked up) Interleukin-10: SRGQYSREDNNCTHFPVGQSHMLLELRTAFSQVKTFFQTKDQLDNILLTDSLMQDFKGYLGCQALSEMIQFYLVEVMPQAEKHGPEIKEHLNSLGEKLKTLRMRLRRCHRFLPCENKSKAVEQVKSDFNKLQDQGVYKAMNEFDIFINCIEAYMMIKMKS", "values": [
      {"measurement": "impact upon DC1 polarization (phenotypic maturation, IL12)", "setting": "[1]", "result": "negligible impacts"}
    ]},
    {"molecule": "IL4: recombinant mouse IL4 (protein, UniProt P07750 21-140, looked up) Interleukin-4: HIHGCDKNHLREIIGILNEVTGEGTPCTEMDVPNVLTATKNTTESELVCRASKVLRIFYLKHGKTPCLKKNSSVLMELQRLFRAFRCLDSSISCTMNESKSTSLKDFLESLKSIMQMDYS", "values": [
      {"measurement": "spontaneous DC maturation with exogenous IL4 in Step 2", "setting": "BM cells", "result": "even more robust"}
    ]},
    {"molecule": "rSCF: recombinant stem cell factor, alternative to mSCF (protein, UniProt P20826 26-190, looked up) Soluble KIT ligand: KEICGNPVTDNVKDITKLVANLPNDYMITLNYVAGMDVLPSHCWLRDMVIQLSLSLTTLLDKFSNISEGLSNYSIIDKLGKIVDDLVLCMEENAPKNIKESPKRPETRSFTPEEFFSIFNRSIDAFKDFMVASDTSDCVLSSTLGPEKDSRVSVTKPFMLPPVAA", "values": [
      {"measurement": "effectiveness as alternative Step 1 factor", "setting": "[2]", "result": "also effective"}
    ]},
    {"molecule": "IFNγ: recombinant mouse interferon gamma (protein, UniProt P01580 23-155, looked up) Interferon gamma: HGTVIESLESLNNYFNSSGIDVEEKSLFLDIWRNWQKDGDMKILQSQIISFYLRLFEVLKDNQAISNNISVIESHLITTFFSNSKAKKDAFMSIAKFEVNNPQVQRQAFNELIRVVHQLLPESSLRKRKRSRC", "values": [
      {"measurement": "IL12 production", "setting": "conditioned BM cells; IFNγ treatment alone", "result": "Neither tumor nor IFNγ treatment alone induced IL12 production"},
      {"measurement": "IL12 (p70) production", "setting": "conditioned BM cells; tumor exposure combined with IFNγ, Flt3L+IL6 conditioned", "result": "could induce IL12 (p70) production"}
    ]},
    {"molecule": "thrombopoeitin: recombinant murine thrombopoeitin (protein, UniProt P40226 22-356, looked up) Thrombopoietin: SPVAPACDPRLLNKLLRDSHLLHSRLSQCPDVDPLSIPVLLPAVDFSLGEWKTQTEQSKAQDILGAVSLLLEGVMAARGQLEPSCLSSLLGQLSGQVRLLLGALQGLLGTQLPLQGRTTAHKDPNALFLSLQQLLRGKVRFLLLVEGPTLCVRRTLPTTAVPSSTSQLLTLNKFPNRTSGLLETNFSVTARTAGPGLLSRLQGFRVKITPGQLNQTSRSPVQISGYLNRTHGPVNGTHGLFAGTSLQTLEASDISPGAFNKGSLAFNLQGGLPPSPSLAPDGHTPFPPSPALPTTHGSPPQLHPLFPDPSTTMPNSTAPHPVTMYPHPRNLSQET", "values": [
      {"measurement": "superimposed proliferative impacts", "setting": "[2]", "result": "negligible superimposed proliferative impacts"}
    ]}
  ]
}
